The text below walks through data of paper PMC5447021, “TNF Lectin-Like Domain Restores Epithelial Sodium Channel Function in Frameshift Mutants Associated with Pseudohypoaldosteronism Type 1B” (Frontiers in Immunology, 2017).

The structures appear in SMILES notation. Entries after “also recorded” stand apart in the source; their conditions may differ. Marks after values point to notes of the source that are not given here.

One test relates to αF435fs. The test is described as follows: Membrane abundance of αF435fs. In kind it is cell-based, human. The protocol:
Cell surface biotinylation was performed as previously described ([26]). In brief, A549 cells or transiently transfected HEK-293 cells were grown in 10 cm dishes in 37°C, 5% CO2 incubator in DMEM medium supplemented with 5% FBS. […] Medium was aspirated, and then cells were washed twice with 10 ml ice-cold phosphate-buffered saline (PBS), covered with 2.5 mg EZ-Link Sulfo-NHS-SS-Biotin (Thermo Scientific, Rockford, USA), dissolved in 10 ml ice-cold PBS, and incubated at 4°C with gentle agitation for 30 min. Fifty milliliters of quenching solution were added to cells; then cells were scraped in solution and transferred to fresh 50 ml tube. Cell suspension was centrifuged at 500 × g for 3 min. Supernatant was discarded, and 5 ml of Tris-buffered saline (TBS) was added to the cell pellet. The cell pellet was resuspended and centrifuged at 500 × g for 3 min. Supernatant was discarded and cell pellet was resuspended in lysis buffer containing protease inhibitor cocktail (10 µM pepstatin A, 10 µM phenylmethylsulfonyl fluoride, and 10 µM leupeptin) and transferred to fresh 1.5 ml centrifuge tube. Cell pellet was then homogenized on ice by ultrasonication using 1 s bursts and incubated on ice for at least 30 min. Intact cells and nuclei were pelleted by centrifugation at 10,000 × g for 2 min under cooling conditions. Pellet was then discarded and supernatant was transferred to fresh tube, incubated overnight with 0.5 ml NeutrAvidin Agarose under gentle rotation at 4°C and centrifuged at 500 × g for 5 min under cooling conditions. Supernatant was then discarded and the pellet washed twice with 200 µl lysis buffer. The biotinylated proteins were eluted with 100 µl sodium dodecyl sulfate (SDS) sample buffer (62.5 mM Tris, pH 6.8, 1% SDS, 10% glycerine, 50 mM dithiothreitol) containing 10 µM E64 at 65°C for 10 min. Sample was then centrifuged at 500 × g for 2 min. Pellet was discarded and supernatant subjected to protein electrophoresis and immunoblotting. […] Exposed films were scanned and quantified using ImageJ (NIH, MD, USA). […]

The subject of another test is αT482fs. Kind of test: Membrane abundance of αT482fs. Format: cell-based, human. Here is the method:
Cell surface biotinylation was performed as previously described ([26]). In brief, A549 cells or transiently transfected HEK-293 cells were grown in 10 cm dishes in 37°C, 5% CO2 incubator in DMEM medium supplemented with 5% FBS. […] Medium was aspirated, and then cells were washed twice with 10 ml ice-cold phosphate-buffered saline (PBS), covered with 2.5 mg EZ-Link Sulfo-NHS-SS-Biotin (Thermo Scientific, Rockford, USA), dissolved in 10 ml ice-cold PBS, and incubated at 4°C with gentle agitation for 30 min. Fifty milliliters of quenching solution were added to cells; then cells were scraped in solution and transferred to fresh 50 ml tube. Cell suspension was centrifuged at 500 × g for 3 min. Supernatant was discarded, and 5 ml of Tris-buffered saline (TBS) was added to the cell pellet. The cell pellet was resuspended and centrifuged at 500 × g for 3 min. Supernatant was discarded and cell pellet was resuspended in lysis buffer containing protease inhibitor cocktail (10 µM pepstatin A, 10 µM phenylmethylsulfonyl fluoride, and 10 µM leupeptin) and transferred to fresh 1.5 ml centrifuge tube. Cell pellet was then homogenized on ice by ultrasonication using 1 s bursts and incubated on ice for at least 30 min. Intact cells and nuclei were pelleted by centrifugation at 10,000 × g for 2 min under cooling conditions. Pellet was then discarded and supernatant was transferred to fresh tube, incubated overnight with 0.5 ml NeutrAvidin Agarose under gentle rotation at 4°C and centrifuged at 500 × g for 5 min under cooling conditions. Supernatant was then discarded and the pellet washed twice with 200 µl lysis buffer. The biotinylated proteins were eluted with 100 µl sodium dodecyl sulfate (SDS) sample buffer (62.5 mM Tris, pH 6.8, 1% SDS, 10% glycerine, 50 mM dithiothreitol) containing 10 µM E64 at 65°C for 10 min. Sample was then centrifuged at 500 × g for 2 min. Pellet was discarded and supernatant subjected to protein electrophoresis and immunoblotting. The biotinylated proteins were separated under reducing conditions by SDS-PAGE using 7.5% SDS gel along with prestained protein marker (cat. #12949 from Cell Signaling). Proteins were then transferred onto a nitrocellulose membrane (UltraCruzTM […], Santa Cruz Biotechnology, TX, USA) by semi-dry blotting at 25 V for 30 min. Unspecific binding sites were blocked by incubating the membrane overnight at 4°C with 3% FBS in PBS supplemented with 0.02% sodium azide. Membrane was then incubated for 90 min with primary antibody (anti-α-hENaC, anti-δ-hENaC, and anti-β-actin from Sigma Aldrich; anti-β- and anti-γ-hENaC from Santa Cruz Biotechnology). Membrane was washed 5× with 10 ml PBS containing 0.1% Tween-20 (PBST), and corresponding horseradish peroxidase-conjugated secondary antibodies (Santa Cruz Biotechnology) were applied. After 90-min incubation, membrane was washed 3× with PBST and once with PBS. Enhanced chemiluminescence (ECL) substrate (Amersham ECL Plus Western Blotting Detection Reagent, GE Healthcare, Vienna, Austria) was used for visualization. Following incubation for 2 min, membranes were exposed to X-ray films (Amersham Hyperfilm ECL, GE Healthcare). Exposed films were scanned and quantified using ImageJ (NIH, MD, USA).
To study α-ENaC protein abundance in plasma membrane cell surface, biotinylation of HEK-293 cells transiently transfected with WT or different PHA1B mutants was followed by SDS-PAGE and immunoblotting. Expression of frameshift mutants varied markedly. […]

In the next test the target is T1, δ-hENaC (Homo sapiens, UniProt P51172).
T1 construct: expressed in transfected cells; host or cells: HEK-293
T1 sequence (P51172 1-638 isoform P51172-1): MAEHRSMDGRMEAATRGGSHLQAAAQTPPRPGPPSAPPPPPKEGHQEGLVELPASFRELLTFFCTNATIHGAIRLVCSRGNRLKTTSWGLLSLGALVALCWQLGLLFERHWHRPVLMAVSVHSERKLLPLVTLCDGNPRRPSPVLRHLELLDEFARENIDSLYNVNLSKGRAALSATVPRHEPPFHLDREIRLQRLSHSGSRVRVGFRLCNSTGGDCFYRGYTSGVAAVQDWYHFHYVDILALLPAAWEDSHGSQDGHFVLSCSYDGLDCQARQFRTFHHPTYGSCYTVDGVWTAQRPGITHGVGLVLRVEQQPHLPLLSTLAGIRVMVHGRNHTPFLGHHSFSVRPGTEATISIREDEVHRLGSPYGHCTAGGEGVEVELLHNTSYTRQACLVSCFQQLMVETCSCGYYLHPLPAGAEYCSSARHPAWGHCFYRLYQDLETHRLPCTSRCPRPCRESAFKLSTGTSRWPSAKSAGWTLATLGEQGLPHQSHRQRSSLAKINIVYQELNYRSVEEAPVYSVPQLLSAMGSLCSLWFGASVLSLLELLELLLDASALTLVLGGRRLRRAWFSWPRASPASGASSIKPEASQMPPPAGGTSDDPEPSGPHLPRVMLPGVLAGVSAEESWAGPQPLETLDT
The arrangement: method as in PMID 24077967. As to conditions: δ-hENaC alone, control current 60.6 ± 2.5 pA, mean ± S.E.; cited from earlier work.

The subject of the next test is αL576Xβγ-ENaC. The settings on record: cited from earlier work.
Another test concerns δD522Xβγ-ENaC. The settings on record: cited from earlier work.
A further test concerns α-ENaC (WT αβγ-ENaC). The settings on record: HEK-293, 5 and 10 min; returns after 1 h; cited from earlier work.
Another test concerns flooded rat lung. The settings on record: in situ and in vivo; cited from earlier work. From the text:
(§1) Like TNF, TIP peptide can influence regulation of alveolar fluid balance.

Another test deals with pulmonary edema. The settings on record: acute hypobaric hypoxia and exercise; cited from earlier work.
Excerpt: as §1

The next test concerns rat lung transplantation. As to conditions: instilled intratracheally into rats prior to lung transplantation; cited from earlier work.
Excerpt: as §1

Where [1] appears, read: glycosylation sites in extracellular loop removed by mutation.

As to `C[C@@H]1NC(=O)CNC(=O)[C@H](CCC(=O)O)NC(=O)[C@@H]2CCCN2C(=O)[C@H]([C@@H](C)O)NC(=O)[C@H](CCC(=O)O)NC(=O)[C@H](CCCNC(=N)N)NC(=O)[C@H](CCC(N)=O)NC(=O)CNC(=O)[C@@H](N)CSSC[C@@H](C(=O)O)NC(=O)[C@H](Cc2ccc(O)cc2)NC(=O)[C@H](Cc2c[nH]c3ccccc23)NC(=O)[C@@H]2CCCN2C(=O)[C@H](CCCCN)NC(=O)[C@H](C)NC(=O)[C@H](CCC(=O)O)NC1=O` [solnatide, L-cysteine, L-cysteinylglycyl-L-glutaminyl-L-arginyl-L-α-glutamyl-L-threonyl-L-prolyl-L-α-glutamylglycyl-L-alanyl-L-α-glutamyl-L-alanyl-L-lysyl-L-prolyl-L-tryptophyl-L-tyrosyl-, cyclic (1→17)-disulfide], the “Membrane abundance, solnatide 5 min” value in the test with αF435fs (200 nM, 5 min, relative to WT control (=1), own control 2.37 ± 0.15, p < 0.001 vs control) is 3.71 ± 0.20; in the test with αT482fs (αT482fs, 200 nM, 5 min, relative to WT control (=1), own control 4.67 ± 0.27, p < 0.001 vs control, n = 4), 6.23 ± 0.24***. In addition, the “Membrane abundance, solnatide 10 min” value came to 2.82 ± 0.17 with αF435fs (200 nM, 10 min, relative to WT control (=1), own control 2.37 ± 0.15, p < 0.01 vs control) and 4.58 ± 0.30 in the test on αT482fs (αT482fs, 200 nM, 10 min, relative to WT control (=1), own control 4.67 ± 0.27, n = 4). In addition, the “Membrane abundance after solnatide” value with αF435fs (HEK-293) is recorded as “the membrane abundance increasing even further following exposure to solnatide”; in the test with αT482fs (αT482fs, HEK-293, discussion, no time stated) it was “the membrane abundance increasing even further following exposure to solnatide”. For the same molecule, the “Membrane abundance” value with αT482fs (glycosylated αT482fs, 200 nM solnatide, 5 min, n = 4) is reported as “even more after 5 min of solnatide treatment”. Also, the “Increase in membrane abundance after PNGase F” value with αT482fs (αT482fs, 200 nM solnatide, 100 units PNGase F, n = 4) was “completely abolished in deglycosylated mutants; also recorded: after PNGase F treatment no differences can be observed”. For the same molecule, at δ-hENaC, the “Maximal induced current, solnatide” value was 15.6 ± 7.9 pA. Besides, the “Effect of solnatide on amiloride-sensitive current” value in the test on αL576Xβγ-ENaC and in the test on δD522Xβγ-ENaC was “a residual albeit non-significant increase in the amiloride-sensitive current” in each case. In addition, the “Current increase, glycosylation sites removed” value in the test with αL576Xβγ-ENaC (setting [1]) and in the test on δD522Xβγ-ENaC (setting [1]) was “small increase was not seen” each time. For the same molecule, in the test on α-ENaC (WT αβγ-ENaC), the “Membrane abundance, solnatide” value is “significant statistically”. Also, in the test on flooded rat lung, the “Alveolar fluid reabsorption” value was “activate fluid reabsorption in in situ and in vivo flooded rat lung models”. Further, the “Therapeutic activity” value in the test with pulmonary edema is reported as “profound therapeutic activity”. In the test with rat lung transplantation, the “Lung function” value is “significantly improved lung function”.
